Experiments:
[1] = system: ABCA1 mutant-transduced Tet2 deficient BM cells; experiment: [3H]-thymidine proliferation assay in ex vivo BM liquid culture; format: cell-based, mouse; conditions: FIG. 5E
Source text: FIG. 5. Cholesterol accumulation couples ABCA1 invalidation and Tet2 deficiency to IL-3 receptor β signaling hypersensitivity. (A-D) Quantification of BODIPY staining by flow cytometry expressed as mean fluorescence intensity (MFI) as a surrogate of cellular cholesterol neutral lipid per cell in BM hematopoietic stem (A and C) and progenitor (B and D) cells (i.e, LSKs, MEPs, CMPs and GMPs) of recipient mice transplanted with Mx1-Cre^+, Mx1-Cre^+ Abca1^fl/fl, MX1-Cre^+Tet2^fl/fl and Mx1-Cre^+Tet2^fl/flAbca1^fl/fl BM (A and B) or control and Mx1-Cre^+Tet2^fl/fl BM expressing empty, ABCA1-WT or ABCA1 mutants (C and D). (E) Expression of mRNA was normalized to m36B4. mRNA levels were expressed as percentage over WT whole BM cells. Proliferation rates were determined after 2 h [^3H]-thymidine pulse labeling in BM cells from empty, ABCA1-WT and ABCA1 mutants-transduced animals on a Tet2 deficient background that were grown for 72 h in liquid culture in the presence or absence of 6 ng/mL IL-3 and 2 ng/mL GM-CSF and the indicated chemical compounds.
FIG. 6. […] (A) Proliferation rates were determined after 2 h [^3H]-thymidine pulse labeling in BM cells from empty, ABCA1-WT and ABCA1 mutants-transduced animals on a Tet2 deficient background that were grown for 72 h in liquid culture in the presence or absence of 50 μg/mL PEG-HDL. […]

[2] = system: ABCA1 mutant-transduced Tet2 deficient BM cells; experiment: cell viability of treated ex vivo BM cultures; format: cell-based, mouse; conditions: same treated BM cultures; data not shown
Method: Briefly, femurs were flushed with ice-cold PBS and centrifugated for 5 min at 1,000 rpm to extract BM cells. After red blood cell lysis, over 90% of BM cells were CD45-positive cells of hematopoietic origin (Westerterp et al., 2012). Primary BM cells were resuspended in IMDM (Gibco) containing 10% FCS (STEMCELL Technologies) and cultured for 1 h in tissue culture flasks to remove adherent cells, including macrophages. The transduction rate of control, ABCA1-WT and ABCA 1-mutant lentiviral particles was determined after BM transplantation as described above. Suspended cells were then normalized to the same concentration and cultured for 72 h in the presence of 6 ng/mL IL-3 and 2 ng/mL GM-CSF (R&D Systems). In some experiments, the cyclodextrin (Sigma) was used at the final concentration of 5 mM, tempol (EMD Millipore) at 4 mM and anti-IL3Rbeta AF549 antibody (R&D Systems) at 50 μg/mL.

Compound | basal proliferation and IL-3/GM-CSF hypersensitivity of ABCA1 mutants-transduced Tet2 deficient BM cells ([1]; tempol 4 mM, 72 h culture with or without 6 ng/mL IL-3 and 2 ng/mL GM-CSF) | cell viability [2] | proliferation of ABCA1 mutant-transduced Tet2 deficient BM cells ([1]; 72 h culture in presence or absence of IL-3 and GM-CSF, cyclodextrin 5 mM, antibody 50 μg/mL, effect similar to ABCA1-WT overexpression)
CC1(C)CC(O)CC(C)(C)N1[O] [tempol] | prevented the basal proliferation and IL-3/GM-CSF hypersensitivity | – | –
cyclodextrin | – | without affecting cell viability | prevented the proliferation
